Each molecule was assayed against SARS2 protease (Severe acute respiratory syndrome coronavirus 2, UniProt P0DTD1) (assay: SARS-CoV-2 protease inhibition assay (SARS2 FRET protease assay)). Conditions: SARS-CoV-2 protease 25 nM, FRET, peptide substrate 1.3 μM, 30 minutes at 30° C., compounds 20 μM to 1.0 nM; read-out: IC50.
Format: biochemical

Q: For `CCOP(=O)(OCC)C(O)C(CC1CC(Cc2ccccc2)NC1=O)NC(=O)[C@H](CC1CCCCC1)NC(=O)OCc1cccc(Cl)c1` (stereo partly drawn) [Compound C41, 3-Chlorobenzyl ((2S)-1-((3-(5-benzyl-2-oxopyrrolidin-3-yl)-1-(diethoxyphosphoryl)-1-hydroxypropan-2-yl)amino)-3-cyclohexyl-1-oxopropan-2-yl)carbamate], which IC50 is on record?
A: 308 nM

Q: Which IC50 does the source give for `COc1cccc(CC2(OC(=O)N[C@@H](CC(C)C)C(=O)N[C@H](C=O)C[C@@H]3CCNC3=O)CC2)c1` [Compound C42, 1-(3-Methoxybenzyl)cyclopropyl ((S)-4-methyl-1-oxo-1-(((S)-1-oxo-3-((S)-2-oxopyrrolidin-3-yl)propan-2-yl)amino)pentan-2-yl)carbamate] here?
A: 356 nM

Q: For `CC(C)C[C@H](NC(=O)OC1CCCC1Cc1ccccc1)C(=O)N[C@H](C=O)C[C@@H]1CCNC1=O` (stereo partly drawn) [Compound C43, 2-benzylcyclopentyl ((S)-4-methyl-1-oxo-1-(((S)-1-oxo-3-((S)-2-oxopyrrolidin-3-yl)propan-2-yl)amino)pentan-2-yl) carbamate], which IC50 is on record?
A: 56 nM

Q: `CC(C)C[C@H](NC(=O)OC1(Cc2ccccc2)CC1)C(=O)N[C@H](C=O)C[C@@H]1CCNC1=O` [Compound C44, 1-Benzylcyclopropyl ((S)-4-methyl-1-oxo-1-(((S)-1-oxo-3-((S)-2-oxopyrrolidin-3-yl)propan-2-yl)amino)pentan-2-yl) carbamate] was tested. Which IC50 did it give?
A: 331 nM

Q: Which IC50 does the source give for `CC(C)C[C@H](NC(=O)OC1(Cc2cccc(Cl)c2)CC1)C(=O)N[C@H](C=O)C[C@@H]1CCNC1=O` [Compound C45, 1-(3-Chlorobenzyl) cyclopropyl ((S)-4-methyl-1-oxo-1-(((S)-1-oxo-3-((S)-2-oxopyrrolidin-3-yl)propan-2-yl)amino)pentan-2-yl)carbamate] here?
A: 304 nM

Q: With `CC(C)C[C@H](NC(=O)OC(C)(C)Cc1ccccc1)C(=O)N[C@H](C=O)C[C@@H]1CCNC1=O` [Compound C46, 2-Methyl-1-phenylpropan-2-yl ((S)-4-methyl-1-oxo-1-(((S)-1-oxo-3-((S)-2-oxopyrrolidin-3-yl)propan-2-yl)amino)pentan-2-yl) carbamate] as the molecule, how does the IC50 read?
A: 1380 nM

Q: How did the IC50 turn out when `CC(C)C[C@H](NC(=O)OC1(Cc2ccccc2)CC1)C(=O)N[C@@H](C[C@@H]1CCNC1=O)C(O)S(=O)(=O)O` (stereo partly drawn) [Compound C48, (2S)-2-((S)-2-(((1-Benzylcyclopropoxy)carbonyl)amino)-4-methylpentanamido)-1-hydroxy-3-((S)-2-oxopyrrolidin-3-yl) propane-1-sulfonate] was run?
A: 241 nM

Q: With `COc1cccc(CC2(OC(=O)N[C@@H](CC(C)C)C(=O)N[C@@H](C[C@@H]3CCNC3=O)C(O)S(=O)(=O)O)CC2)c1` (stereo partly drawn) [Compound C49, (2S)-1-Hydroxy-2-((S)-2-(((1-(3-methoxybenzyl)cyclopropoxy)carbonyl)amino)-4-methylpentanamido)-3-((S)-2-oxopyrrolidin-3-yl)propane-1-sulfonate] as the molecule, how does the IC50 read?
A: 266 nM

Q: For `CC(C)C[C@H](NC(=O)OC(C)Cc1ccccc1)C(=O)N[C@@H](C[C@@H]1CCNC1=O)C(O)S(=O)(=O)O` (stereo partly drawn) [Compound C50, (2S)-1-Hydroxy-2-((2S)-4-methyl-2-((((1-phenylpropan-2-yl)oxy)carbonyl)amino)pentanamido)-3-((S)-2-oxopyrrolidin-3-yl)propane-1-sulfonate], which IC50 is on record?
A: 119 nM

Q: How did the IC50 turn out when `CC(C)C[C@H](NC(=O)OC1CCN(C(=O)OC(C)(C)C)CC1)C(=O)N[C@@H](C[C@@H]1CCNC1=O)C(O)S(=O)(=O)O` (stereo partly drawn) [Compound C51, (2S)-2-((S)-2-((((1-(tert-butoxycarbonyl)piperidin-4-yl)oxy)carbonyl)amino)-4-methylpentanamido)-1-hydroxy-3-((S)-2-oxopyrrolidin-3-yl) propane-1-sulfonate] was run?
A: 115 nM

Q: For `O=CC(CC1CC(Cc2ccccc2)NC1=O)NC(=O)[C@H](CC1CCCCC1)NC(=O)OCc1cccc(Cl)c1` (stereo partly drawn) [Compound C52, 3-Chlorobenzyl ((2S)-1-((1-(5-benzyl-2-oxopyrrolidin-3-yl)-3-oxopropan-2-yl)amino)-3-cyclohexyl-1-oxopropan-2-yl)carbamate], which IC50 is on record?
A: 500 nM
